Entries after “also recorded” stand apart in the source; their conditions may differ.
What was measured:
[1] = tested on: FAF1 protein secretion in SH-SY5Y cells overexpressing FAF1; experiment: Secretion of FAF1 protein into culture medium after Brefeldin A treatment (ER-Golgi pathway), Western blotting; format: cell-based, human; conditions: 10 μM, 24 hours, serum-free DMEM, SH-SY5Y cells transfected with 3x Flag tag-FAF1 vector, FIG. 2b
Method: (§1) Particularly, SH-SY5Y cells were aliquoted into 60 mm culture dishes at the density of 5×10^5 cells/dish, and subcultured in DMEM (Dulbecco/s Modified Eagle's Medium) supplemented with antibiotics and 10% FBS (fetal bovine serum) under the conditions of 37° C. and 5% CO2 for 24 hours. The cultured SH-SY5Y cells were transfected with 2 μg of 3x Flag tag-FAF1 expression vector to overexpress FAF1 protein, cultured for 24 hours, and then washed with PPS buffer. Thereafter, the medium was replaced with serum-free DMEM (Dulbecco/s Modified Eagle's Medium), and the cells were treated with 10 μM Brefeldin A (BFA), a compound that inhibits protein secretion through the ER-Golgi pathway, and further cultured in an incubator for 24 hours. The medium was transferred to a 15 ml tube and centrifuged at 1500 rpm for 2 minutes to obtain a supernatant. The obtained supernatant was placed in Amicon Ultra-4 Centrifugal Filter, and centrifuged again at 4000×g, 4° C. for 15 minutes. The protein filtered by the filter was analyzed by Western blotting.

[2] = tested on: FAF1 protein secretion in SH-SY5Y cells overexpressing FAF1; experiment: Secretion of FAF1 protein into culture medium after treatment with compounds that increase or decrease exosome secretion, Western blotting; format: cell-based, human; conditions: 10 μM, 24 hours, serum-free DMEM, SH-SY5Y cells transfected with 3x Flag tag-FAF1 vector, FIG. 3
Method: as §1, with “PBS” for “PPS”, “Monensin” for “Brefeldin A (BFA), a”, “to increase exosome” for “that inhibits protein”, “and 10 μM GW4869 compound to decrease exosome secretion,” for “through the ER-Golgi pathway,”, “cultured” for “cultured in an incubator”

| Structure (SMILES) | expression level of FAF1 protein (secreted into culture medium) versus group not treated [1] | secretion amount of FAF1 compared to control group [2] |
| --- | --- | --- |
| C[C@H]1CCC/C=C/[C@@H]2C[C@H](O)C[C@H]2[C@H](O)/C=C/C(=O)O1 [Brefeldin A] | constant; also recorded: no difference |  |
| CC[C@@]1([C@@H]2O[C@@H]([C@H]3O[C@@](O)(CO)[C@H](C)C[C@@H]3C)C[C@@H]2C)CC[C@H]([C@]2(C)CC[C@]3(C[C@H](O)[C@@H](C)[C@@H]([C@@H](C)[C@@H](OC)[C@H](C)C(=O)O)O3)O2)O1 [Monensin] |  | significantly increased |
| O=C(/C=C/c1ccc(/C=C/C(=O)Nc2ccc(C3=NCCN3)cc2)cc1)Nc1ccc(C2=NCCN2)cc1 [GW4869] |  | decreased |
